Values joined by “and” are separate entries in the source; they are usually repeats but may differ in a detail not shown here. Equal values may be shown once. Read-outs that look alike come from different tables or passages of the source.
Experiments:
[1] = system: HL-60 human promyelocytic leukemia cells; assay: MTT cytotoxicity assay, HL-60 cells; assay type: cell-based; conditions: for IC50: MTT, read-out: IC50
Procedure, shortened: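 Cytotoxicity toward HL-60 leukemia cells was measured by MTT after a 72 h/37°C incubation with compounds, following 24 h pre-culture at 10,000 cells/well in 96-well plates. All media contained 0.1% DMSO. Optical density at 570 nm, corrected at 690 nm, gave viability relative to untreated controls (100%). IC50 values came from CalcuSyn 2.0, and data are mean ± SD.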

[2] = system: MCF-7 cells; assay: Cellular 59Fe uptake from 59Fe2-transferrin; assay type: cell-based, human; parameters: key to Uptake 59Fe, Ave / Uptake 59Fe: % of internalized 59Fe in untreated control cells; conditions: Control Ave = 100
Procedure, shortened: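 Confluent MCF-7 cells were incubated 3 h at 37°C with 0.75 μM ⁵⁹Fe₂-transferrin (500 pCi/pmol Fe) plus chelator at 25 μM. Membrane-bound ⁵⁹Fe was released with Pronase (1 mg/mL, 30 min, 4°C). Pronase-insensitive internalized ⁵⁹Fe was expressed as % of untreated control.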

[3] = system: caspase 8; assay: Caspase activity, luminescent kit, caspase 8; assay type: cell-based, human; conditions: for kaspáza 8, raw signal / kaspáza 8, signal / viabilita: individual experiments by date; for kaspáza 8, raw signal, průměry / kaspáza 8, % kontroly / kaspáza 8, signal / viabilita, průměry: mean; for kaspáza 8, % kontroly / kaspáza 8, signal / viabilita / kaspáza 8, signal / viabilita, průměry: normalised to viability;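 as to all read-outs here: MCF-7 cells treated at 100 nM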
[4] = system: caspase 9; assay: Caspase activity, luminescent kit, caspase 9; assay type: cell-based, human; conditions: for kaspáza 9, raw signal / kaspáza 9, signal / viabilita: individual experiments by date; for kaspáza 9, raw signal, průměry / kaspáza 9, % kontroly / kaspáza 9, signal / viabilita, průměry: mean; for kaspáza 9, % kontroly / kaspáza 9, signal / viabilita / kaspáza 9, signal / viabilita, průměry: normalised to viability;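 as to all read-outs here: MCF-7 cells treated at 100 nM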

SMILES: CCNC(=O)NN=C(c1ccccc1)c1ccccn1 [Z-Bp4eS, 2-benzoylpyridine 4-ethylsemicarbazone]
- Therapeutic index, IC50 non-cancerous cells / IC50 neoplastic cells ([1]; 3T3/HL-60): >21.6
- Therapeutic index, IC50 non-cancerous cells / IC50 neoplastic cells ([1]; H9c2/HL-60): 7.4
- IC50 ([1]; HL-60, 72 h/37°C, mean ± SD, n ≥ 4): 46.2 ± 1.5 µM
- MTT, relative to control (0 = 100) ([1]; HL-60, 10 000 b/j, 3 μM, průměr (mean), sheet Z-Bp4eS): 96.55
- MTT, relative to control (0 = 100) ([1]; HL-60, 10 000 b/j, 3 μM, single experiment (date), sheet Z-Bp4eS): 99.8024 and 101.089 and 96.0475 and 94.6794 and 91.1123
- MTT, relative to control (0 = 100) ([1]; HL-60, 10 000 b/j, 10 μM, průměr (mean), sheet Z-Bp4eS): 98.03
- MTT, relative to control (0 = 100) ([1]; HL-60, 10 000 b/j, 10 μM, single experiment (date), sheet Z-Bp4eS): 97.8586 and 97.7431 and 101.779 and 97.3762 and 95.3935
- MTT, relative to control (0 = 100) ([1]; HL-60, 10 000 b/j, 30 μM, průměr (mean), sheet Z-Bp4eS): 90.77
- MTT, relative to control (0 = 100) ([1]; HL-60, 10 000 b/j, 30 μM, single experiment (date), sheet Z-Bp4eS): 95.7321 and 90.5946 and 90.8492 and 85.9082
- MTT, relative to control (0 = 100) ([1]; HL-60, 10 000 b/j, 40 μM, průměr (mean), sheet Z-Bp4eS): 82.14
- MTT, relative to control (0 = 100) ([1]; HL-60, 10 000 b/j, 40 μM, single experiment (date), sheet Z-Bp4eS): 82.3316 and 84.0304 and 91.7648 and 77.576 and 75.0054
- MTT, relative to control (0 = 100) ([1]; HL-60, 10 000 b/j, 50 μM, průměr (mean), sheet Z-Bp4eS): 40.92
- MTT, relative to control (0 = 100) ([1]; HL-60, 10 000 b/j, 50 μM, single experiment (date), sheet Z-Bp4eS): 42.5442 and 42.5088 and 37.382 and 41.2548
- MTT, relative to control (0 = 100) ([1]; HL-60, 10 000 b/j, 80 μM, průměr (mean), sheet Z-Bp4eS): 2.08
- MTT, relative to control (0 = 100) ([1]; HL-60, 10 000 b/j, 100 μM, průměr (mean), sheet Z-Bp4eS): 2.48
- MTT, relative to control (0 = 100) ([1]; HL-60, 10 000 b/j, 300 μM, průměr (mean), sheet Z-Bp4eS): 2.72
- MTT, relative to control (0 = 100) ([1]; HL-60, 10 000 b/j, 300 μM, single experiment (date), sheet Z-Bp4eS): 3.195 and 2.8028 and 2.136 and 2.734
- IC50 ([1]; HL-60, 10 000 b/j, single experiment (date), sheet Z-Bp4eS): 46.2 µM and 48.3 µM and 45.5 µM
- IC50 ([1]; Homo sapiens, HL-60, HL-60, 10 000 b/j, průměr (mean), sheet Z-Bp4eS): 46.2 µM
- IC50 ([1]; Homo sapiens, HL-60, HL-60, 10 000 b/j, single experiment (date), sheet Z-Bp4eS): 44.9 µM
- Uptake 59Fe, Ave ([2]; average of all replicates): 99.1556
- Uptake 59Fe ([2]; single replicate (three per date)): 95.0144 and 99.433 and 101.961 and 99.9491 and 96.6715 and 101.111 and 99.7324 and 96.809 and 101.719
- kaspáza 8, raw signal ([3]; 3 hodiny): 1943.5 and 1086.5 and 1152 and 914.5
- kaspáza 8, raw signal, průměry ([3]; 3 hodiny): 1274.12
- kaspáza 8, % kontroly ([3]; 3 hodiny): 95.08 % kontroly
- kaspáza 8, signal / viabilita ([3]; 3 hodiny): 19.9524 and 11.1542 and 11.8267 and 9.388
- kaspáza 8, signal / viabilita, průměry ([3]; 3 hodiny): 13.0804
- kaspáza 8, raw signal ([3]; 24 hodin): 1728 and 1248 and 1958.5 and 1430.5
- kaspáza 8, raw signal, průměry ([3]; 24 hodin): 1591.25
- kaspáza 8, % kontroly ([3]; 24 hodin): 100.61 % kontroly
- kaspáza 8, signal / viabilita ([3]; 24 hodin): 17.3743 and 12.5481 and 19.6919 and 14.3831
- kaspáza 8, signal / viabilita, průměry ([3]; 24 hodin): 15.9994
- kaspáza 8, raw signal ([3]; 72 hodin): 6689.5 and 5535.5 and 6778.5 and 5867
- kaspáza 8, raw signal, průměry ([3]; 72 hodin): 6217.62
- kaspáza 8, % kontroly ([3]; 72 hodin): 96.15 % kontroly
- kaspáza 8, signal / viabilita ([3]; 72 hodin): 71.5149 and 59.1779 and 72.4663 and 62.7218
- kaspáza 8, signal / viabilita, průměry ([3]; 72 hodin): 66.4702
- kaspáza 9, raw signal ([4]; 3 hodiny): 6118 and 2344.5 and 3460 and 2039.5
- kaspáza 9, raw signal, průměry ([4]; 3 hodiny): 3490.5
- kaspáza 9, % kontroly ([4]; 3 hodiny): 100.62 % kontroly
- kaspáza 9, signal / viabilita ([4]; 3 hodiny): 62.8087 and 24.0691 and 35.5211 and 20.938
- kaspáza 9, signal / viabilita, průměry ([4]; 3 hodiny): 35.8342
- kaspáza 9, raw signal ([4]; 24 hodin): 4532 and 2581 and 5427.5 and 4043
- kaspáza 9, raw signal, průměry ([4]; 24 hodin): 4145.88
- kaspáza 9, % kontroly ([4]; 24 hodin): 101.82 % kontroly
- kaspáza 9, signal / viabilita ([4]; 24 hodin): 45.5674 and 25.9509 and 54.5713 and 40.6507
- kaspáza 9, signal / viabilita, průměry ([4]; 24 hodin): 41.6851
- kaspáza 9, raw signal ([4]; 72 hodin): 21491.5 and 17542 and 23160 and 18381
- kaspáza 9, raw signal, průměry ([4]; 72 hodin): 20143.6
- kaspáza 9, % kontroly ([4]; 72 hodin): 100.13 % kontroly
- kaspáza 9, signal / viabilita ([4]; 72 hodin): 229.757 and 187.535 and 247.595 and 196.504
- kaspáza 9, signal / viabilita, průměry ([4]; 72 hodin): 215.348

From article PMC4604124, “In Vitro Characterization of the Pharmacological Properties of the Anti-Cancer Chelator, Bp4eT, and Its Phase I Metabolites” (PLoS ONE, 2015)
